The values below come from PubChem BioAssay AID434951 (Broad Institute, 2010).

The source made the active and inactive calls.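 The calls were made as follows: active = a fitted half-maximal concentration EC50 for the rise in nuclear signal no higher than ten times the top dose tested; inconclusive = flat fit with activity between 30% and 70%, or unusable fit; inactive = EC50 beyond ten times the top dose.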

Sequence of Hypoxia-inducible factor 1-alpha (Homo sapiens) (Q16665 whole entry, looked up): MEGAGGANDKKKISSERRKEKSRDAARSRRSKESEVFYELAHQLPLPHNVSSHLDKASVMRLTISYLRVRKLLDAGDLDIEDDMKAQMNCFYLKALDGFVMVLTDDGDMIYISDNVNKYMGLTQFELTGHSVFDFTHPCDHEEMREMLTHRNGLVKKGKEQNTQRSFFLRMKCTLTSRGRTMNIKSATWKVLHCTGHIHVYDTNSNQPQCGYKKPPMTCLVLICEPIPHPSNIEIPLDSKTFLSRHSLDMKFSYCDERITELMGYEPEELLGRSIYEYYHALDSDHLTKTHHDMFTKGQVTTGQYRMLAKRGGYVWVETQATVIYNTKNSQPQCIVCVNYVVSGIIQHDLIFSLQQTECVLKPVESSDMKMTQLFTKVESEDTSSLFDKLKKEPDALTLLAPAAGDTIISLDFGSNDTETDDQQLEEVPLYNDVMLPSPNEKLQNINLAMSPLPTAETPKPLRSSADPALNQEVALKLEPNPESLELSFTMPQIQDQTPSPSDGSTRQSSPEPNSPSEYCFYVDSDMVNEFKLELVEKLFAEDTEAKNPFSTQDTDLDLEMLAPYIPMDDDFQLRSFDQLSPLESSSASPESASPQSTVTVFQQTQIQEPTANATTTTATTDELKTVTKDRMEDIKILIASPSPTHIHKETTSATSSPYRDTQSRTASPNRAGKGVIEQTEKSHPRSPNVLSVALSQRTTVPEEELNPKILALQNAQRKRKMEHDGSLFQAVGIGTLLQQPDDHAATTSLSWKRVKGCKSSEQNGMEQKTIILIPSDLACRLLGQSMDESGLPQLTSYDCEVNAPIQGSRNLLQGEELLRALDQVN

The experiment concerns the target Hypoxia-inducible factor 1-alpha (Homo sapiens) (UniProt Q16665). Description: HIF pathway activation, GFP-HIF1alpha translocation – imaging, fluorescence, U2OS GFP-HIF1alpha, confirmation (AID 434951). The note with it: U2OS GFP-HIF1alpha nuclear intensity, high-content imaging.
By EC50 is commonly meant the concentration giving half of the maximal effect. With `CC[C@@]1(O)C(=O)OCc2c1cc1n(c2=O)Cc2cc3c(N)cccc3nc2-1`, the EC50 is > 35 µM (inactive).

As to `Cc1ccc(N=Nc2ccc(O)c(/C=N\NC(=O)c3ccc(N)cc3)c2)cc1C`, the EC50 is > 35 µM (inactive).

As for `ONC=Nc1cccc2nonc12`, the EC50 is > 35 µM (inactive).

As to `COc1cc(CC(=O)Nc2ccc(Cl)c(C(F)(F)F)c2)cc(OC)c1OC`, the EC50 was > 35 µM (inactive).

Consider `Cc1cc(C(=O)O)oc(=O)c1`, for which the EC50 was > 35 µM (inactive).

`CCCCNc1nc(N)nc(-c2cc(Cl)ccc2O)n1`: the EC50 is > 35 µM (inactive).

With `CCN1CCN(c2ccc([N+](=O)[O-])cc2C=C2C(=O)NC(=O)NC2=O)CC1`, the EC50 was > 35 µM (inactive).

With `C/C(=C\C(=O)OCC(=O)NCc1ccccc1)C(=O)OCC(=O)NCc1ccccc1`, the EC50 was > 35 µM (inactive).

As for `CC(C)c1nnc(NC(=O)CCC(=O)NC2CC2)s1`, the EC50 is > 35 µM (inactive).

For `C[C@@H]1O[C@@H](OC[C@H]2O[C@@H](Oc3c(-c4ccc(O)cc4)oc4cc(O)cc(O)c4c3=O)[C@H](O)[C@@H](O)[C@@H]2O)[C@H](O)[C@H](O)[C@H]1O`, the EC50 is > 35 µM (inactive).

On to `O=C(O)c1cccc(N2CCCC2=O)c1`, for which the EC50 was > 35 µM (inactive).

`O=C(O)c1ccccc1OCCOc1ccccc1C(=O)O`: the EC50 was > 35 µM (inactive).

For the compound `CN(C)S(=O)(=O)c1cccc(NC(=S)N/N=C/c2cc(Br)ccc2O)c1`, the EC50 was 12.7 µM.

Turning to `COc1ccccc1OCc1nnc(SCC(=O)NCc2ccco2)n1-c1ccccc1`, the EC50 is > 35 µM (inactive).

As to `CCC(=NCc1cc(OC)cc(OC)c1)c1c(O)[nH]c(=O)[nH]c1=O`, the EC50 is > 35 µM (inactive).

On to `O=C(Nc1ncc2c(n1)CC(c1ccco1)CC2=O)c1ccccc1` (centres undefined), for which the EC50 was > 35 µM (inactive).

Consider `O=C(CSc1nnc(-c2ccncc2)o1)N1CCCCCC1`, for which the EC50 was > 35 µM (inactive).

As to `CC(C)CC(=O)NC(c1cccs1)c1ccc2cccnc2c1O` (centres undefined), the EC50 was 6.26 µM.

Consider `COc1cccc(C2C3=C(N=c4s/c(=C\c5ccccc5O)c(=O)n42)c2ccccc2CC3)c1OC` (centres undefined), for which the EC50 was > 35 µM (inactive).

On to `COc1ccc(C2(C)NC(=O)NC2=O)cc1OC` (centres undefined), for which the EC50 was > 35 µM (inactive).

As to `Cc1ccc(C(=O)CSc2ccc(-c3ccncc3)nn2)cc1`, the EC50 was > 35 µM (inactive).

With `Cc1cc(C)c(C(=O)N2CCCC(N3CCN(c4cccc(C(F)(F)F)c4)CC3)C2)o1` (centres undefined), the EC50 was > 35 µM (inactive).

Regarding `Cc1cccc(CCNC(=O)Cn2ncc3c([nH]c4ccc(C)cc43)c2=O)c1`, the EC50 is > 35 µM (inactive).

Regarding `COc1ccc(C(NC(C)=O)c2ccc3cccnc3c2O)c(OC)c1` (centres undefined), the EC50 is 10.9 µM.

With `COc1ccc(O)c(/C=N/NC(=O)c2ccc(OCc3cccc(Br)c3)cc2)c1`, the EC50 is 5.72 µM.

For `CN(Cc1cccs1)C(=O)CSc1nc(N)cc(N)n1`, the EC50 was > 35 µM (inactive).

For `CC(C)CC1NC(=O)N(Cc2cc(=O)n3ccsc3n2)C1=O` (centres undefined), the EC50 is > 35 µM (inactive).

`O=C(Nc1ccccc1O)c1ccc(NC(=O)C2CC2)cc1`: the EC50 is 10.8 µM.

On to `COc1ccc2nc(NC(=O)Nc3ccccc3OC)sc2c1`, for which the EC50 is > 35 µM (inactive).

Take `CCCC(=O)NC(c1ccc(Cl)cc1Cl)c1ccc2cccnc2c1O` (centres undefined): the EC50 is 2.35 µM.

Consider `CN(C)c1ccc(S(=O)(=O)NCC(=O)OCC(=O)Nc2cc(Cl)cc(Cl)c2)cc1[N+](=O)[O-]`, for which the EC50 is > 35 µM (inactive).

As for `COc1nccc(C(F)(F)F)c1C(=O)NC(=O)Nc1ccccc1`, the EC50 is > 35 µM (inactive).

Consider `O=[N+]([O-])c1cccc(/C=C/c2ccc3cccc(O)c3n2)c1`, for which the EC50 was 33.9 µM.

Regarding `COc1ccc(CNC(=O)CN(CC2CCCO2)C(=O)CNS(=O)(=O)c2ccc(C)cc2)cc1` (centres undefined), the EC50 is > 35 µM (inactive).

For the compound `COc1ccccc1N(CC(=O)NC1CCCCC1)S(C)(=O)=O`, the EC50 was > 35 µM (inactive).

As to `COc1ccc(NC(=O)Nc2ccc(Br)cn2)cc1`, the EC50 is > 35 µM (inactive).

As for `COc1ccc(O)c(/C=N/NC(=S)Nc2cccc(S(=O)(=O)N(C)C)c2)c1`, the EC50 was > 35 µM (inactive).

For `CCC(=O)NC(c1cccs1)c1ccc2cccnc2c1O` (centres undefined), the EC50 is 5.48 µM.

`CCCOc1cccc(C2C(C(=O)c3ccco3)=C(O)C(=O)N2CCCn2ccnc2)c1` (centres undefined): the EC50 was > 35 µM (inactive).

As for `CCCCc1nnc(NC(=O)c2ccc3[nH]c(=O)c(=O)[nH]c3c2)s1`, the EC50 is > 35 µM (inactive).

On to `CCCCn1c(N)c(N(CC)C(=O)c2cc(OC)cc(OC)c2)c(=O)[nH]c1=O`, for which the EC50 was > 35 µM (inactive).

Take `COc1cccc(CN2CCC(N(CCc3ccccc3)Cc3ccccc3)CC2)c1OC`: the EC50 was > 35 µM (inactive).

On to `O=C(c1cc2ccccc2o1)N1CCN(Cc2ccc3c(c2)OCO3)CC1`, for which the EC50 was > 35 µM (inactive).

`C=CCOc1ccc(/C=C2\SC(N)=NC2=O)cc1OC`: the EC50 was > 35 µM (inactive).

In the case of `O=C(C1=NN[C@@H]2C(=O)N(c3cccc(C(F)(F)F)c3)C(=O)[C@H]12)C(c1ccccc1)c1ccccc1`, the EC50 is > 35 µM (inactive).

Consider `CCN(CC)c1ccc(/C=N/Nc2nc(C)cc(=O)[nH]2)c(O)c1`, for which the EC50 is 34.4 µM.

`CCOc1ccc2c(c1)c1nnc(SCC3CCCO3)nc1n2C` (centres undefined): the EC50 was > 35 µM (inactive).

As to `CCC(=O)NC(c1ccc(Cl)cc1Cl)c1ccc2cccnc2c1O` (centres undefined), the EC50 was 6.22 µM.

In the case of `Oc1ccc(CN2CCN(Cc3ccccc3)CC2)c2cccnc12`, the EC50 is > 35 µM (inactive).

For `S=C(Nc1ccc2cn[nH]c2c1)Nc1ccccc1Cl`, the EC50 was > 35 µM (inactive).

Regarding `Cc1oc(-c2ccc(Cl)cc2)cc1C(=O)/C(C#N)=C/Nc1cccc(OC(F)(F)F)c1`, the EC50 was > 35 µM (inactive).

`CC(C)c1ccc(NC(=O)CCc2ccccc2)cc1`: the EC50 is > 35 µM (inactive).

Take `Cc1ccc(Nc2c3c(nc4ccccc24)CCC3)cc1`: the EC50 is > 35 µM (inactive).

For `O=C(NCCCN1CCOCC1)c1cc(-c2cccs2)on1`, the EC50 is 12.3 µM.

With `COc1ccc(S(=O)(=O)N2CCOC2CNC(=O)C(=O)NCc2ccc3c(c2)OCO3)cc1OC` (centres undefined), the EC50 is > 35 µM (inactive).

On to `O=C(N/N=C/c1ccccc1O)c1cccc(C(F)(F)F)c1`, for which the EC50 was 14.3 µM.

`Cc1ccc(CSc2nnc(CCCCCNC(=O)OC(C)(C)C)o2)cc1`: the EC50 was > 35 µM (inactive).

As to `O=C(CSC1c2ccccc2-c2ccccc21)N/N=C/c1ccccc1O`, the EC50 was 6.46 µM.

For the compound `Cc1ccc(C(=O)CSc2cc(C)[nH]c(=O)n2)cc1`, the EC50 was > 35 µM (inactive).

Regarding `Cc1nc(C(=O)Nc2ccc(Cl)cc2Cl)nn1-c1cc(OC(C)C)c(Cl)cc1Cl`, the EC50 is > 35 µM (inactive).

As for `O=C(N/N=C\c1c(O)ccc2ccccc12)c1ccc(Cn2cccn2)o1`, the EC50 was 5.3 µM.

On to `CC(C)Cc1nnc(NC(=O)CCC(=O)N2CCC3(CC2)OCCO3)s1`, for which the EC50 is > 35 µM (inactive).

For the compound `Cc1sc(NC(=O)c2ccco2)c(CN2CCC(C)CC2)c1C`, the EC50 is > 35 µM (inactive).

Take `O=C(NC(c1ccccc1)c1ccccc1)C1CCCO1` (centres undefined): the EC50 is > 35 µM (inactive).
